According to patent publication US9884063B2, “Amido-substituted azole compounds” (Bayer Pharma Aktiengesellschaft, priority 2014, dated 2018):
pIC50: −log10 of the molar value. Where a name gives a salt, the structure may show the parent alone.

Target: T1, TNKS2 (Homo sapiens, UniProt Q9H2K2)
T1 sequence (Q9H2K2 1-1166): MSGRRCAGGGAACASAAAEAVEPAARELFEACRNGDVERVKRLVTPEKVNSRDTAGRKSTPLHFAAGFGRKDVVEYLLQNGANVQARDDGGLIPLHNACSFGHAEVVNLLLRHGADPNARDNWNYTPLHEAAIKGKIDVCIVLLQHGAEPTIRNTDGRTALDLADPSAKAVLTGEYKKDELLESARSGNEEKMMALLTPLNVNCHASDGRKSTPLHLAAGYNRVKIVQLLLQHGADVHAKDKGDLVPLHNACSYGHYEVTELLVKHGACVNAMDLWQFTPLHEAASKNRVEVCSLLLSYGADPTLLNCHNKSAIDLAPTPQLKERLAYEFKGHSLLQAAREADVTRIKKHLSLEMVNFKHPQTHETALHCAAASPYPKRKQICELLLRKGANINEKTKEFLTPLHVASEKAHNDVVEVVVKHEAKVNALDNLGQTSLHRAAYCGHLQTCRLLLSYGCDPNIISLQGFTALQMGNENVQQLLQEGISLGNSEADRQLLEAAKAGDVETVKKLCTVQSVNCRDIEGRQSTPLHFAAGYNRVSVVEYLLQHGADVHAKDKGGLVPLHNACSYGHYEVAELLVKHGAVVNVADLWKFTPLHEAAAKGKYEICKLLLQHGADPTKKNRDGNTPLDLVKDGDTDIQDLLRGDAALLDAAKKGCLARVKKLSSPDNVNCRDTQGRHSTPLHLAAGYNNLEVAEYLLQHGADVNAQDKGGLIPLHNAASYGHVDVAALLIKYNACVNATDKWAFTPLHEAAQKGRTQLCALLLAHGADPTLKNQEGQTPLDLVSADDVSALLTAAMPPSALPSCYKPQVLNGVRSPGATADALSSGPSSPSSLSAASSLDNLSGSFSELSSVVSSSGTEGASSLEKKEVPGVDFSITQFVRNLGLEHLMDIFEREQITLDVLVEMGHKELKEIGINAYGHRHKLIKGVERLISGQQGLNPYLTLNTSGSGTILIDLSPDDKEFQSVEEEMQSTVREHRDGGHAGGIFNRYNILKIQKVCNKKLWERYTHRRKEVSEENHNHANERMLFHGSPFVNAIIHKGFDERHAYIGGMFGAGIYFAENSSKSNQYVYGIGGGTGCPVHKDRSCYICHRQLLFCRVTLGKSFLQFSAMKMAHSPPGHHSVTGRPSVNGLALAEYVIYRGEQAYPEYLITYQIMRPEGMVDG
Assay: Modified TNKS2 Assay 3 (BPS kit #80578, biotin-NAD+, 96 well)
Type: biochemical
Conditions: human TNKS2, BPS kit #80578, 96 well
Summary of the method: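 Commercial kit assay measuring TNKS2-catalysed incorporation of biotin-labelled NAD+ into a protein substrate, detected by streptavidin-HRP chemiluminescence. Run per manufacturer's protocol; IC50 is the concentration halving the normalised signal.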

Structure (SMILES) | pIC50
CNC(=O)c1nc[nH]c1C(=O)Nc1ccc(NC(=O)c2c(C)cc(C)cc2C)cc1 [Example 35, N^5-{4-[(mesitylcarbonyl)amino]phenyl}-N^4-methyl-1H-imidazole-4,5-dicarboxamide] | < 6.30
O=C(Nc1ccc(NC(=O)c2nc[nH]c2C(=O)NCC2CCCO2)cc1)c1ccc(F)cc1Cl (stereo not drawn) [Example 237, N^4-{4-[(2-chloro-4-fluorobenzoyl)amino]phenyl}-N^5-(tetrahydrofuran-2-ylmethyl)-1H-imidazole-4,5-dicarboxamide] | 6.64
O=C(Nc1ccc(NC(=O)c2nc[nH]c2C(=O)NCCN2CCC(F)(F)CC2)cc1)c1ccccc1Cl [Example 214, N^4-{4-[(2-chlorobenzoyl)amino]phenyl}-N^5-[2-(4,4-difluoropiperidin-1-yl)ethyl]-1H-imidazole-4,5-dicarboxamide] | 7.15
COc1cc(NC(=O)c2[nH]cnc2C(=O)NCCN2CCCCC2)ccc1NC(=O)c1ccc(F)cc1Cl [Example 97, N^5-{4-[(2-chloro-4-fluorobenzoyl)amino]-3-methoxyphenyl}-N^4-[2-(piperidin-1-yl)ethyl]-1H-imidazole-4,5-dicarboxamide] | 7.70
O=C(Nc1ccc(NC(=O)c2nc[nH]c2C(=O)NCCCN2CCCC2)cc1)c1ccc(F)cc1Cl [Example 274, N^4-{4-[(2-chloro-4-fluorobenzoyl)amino]phenyl}-N^5-[3-(pyrrolidin-1-yl)propyl]-1H-imidazole-4,5-dicarboxamide] | 8.05
O=C(Nc1ccc(NC(=O)c2nc[nH]c2C(=O)N2CC3(COC3)C2)cc1)c1ccc(F)cc1Cl [Example 145, N-{4-[(2-chloro-4-fluorobenzoyl)amino]phenyl}-5-(2-oxa-6-azaspiro[3.3]hept-6-ylcarbonyl)-1H-imidazole-4-carboxamide] | < 6.30
CNC(=O)c1nc[nH]c1C(=O)Nc1ccc(NC(=O)c2ccc(C#N)cc2F)cc1 [Example 369, N^5-{4-[(4-cyano-2-fluorobenzoyl)amino]phenyl}-N^4-methyl-1H-imidazole-4,5-dicarboxamide] | 7.40
O=C(Nc1ccc(NC(=O)c2nc[nH]c2C(=O)NCCN2CCC(F)(F)CC2)cc1)c1ccc(F)cc1Br [Example 215, N^4-{4-[(2-bromo-4-fluorobenzoyl)amino]phenyl}-N^5-[2-(4,4-difluoropiperidin-1-yl)ethyl]-1H-imidazole-4,5-dicarboxamide] | 6.92
O=C(Nc1ccc(NC(=O)c2nc[nH]c2C(=O)NCC2CCOCC2)cc1)c1ccc(F)cc1Cl [Example 233, N^4-{4-[(2-chloro-4-fluorobenzoyl)amino]phenyl}-N^5-(tetrahydro-2H-pyran-4-ylmethyl)-1H-imidazole-4,5-dicarboxamide] | 6.80
O=C(Nc1ccc(NC(=O)c2nc[nH]c2C(=O)N[C@@H]2CCNC2)cc1)c1ccc(F)cc1Cl [Example 282, N^4-{4-[(2-chloro-4-fluorobenzoyl)amino]phenyl}-N^5-[(3R)-pyrrolidin-3-yl]-1H-imidazole-4,5-dicarboxamide hydrochloride salt] | 8.00
O=C(Nc1ccc(NC(=O)c2nc[nH]c2C(=O)NCC2CC2)cc1)c1ccc(F)cc1Cl [Example 128, N^4-{4-[(2-chloro-4-fluorobenzoyl)amino]phenyl}-N^5-(cyclopropylmethyl)-1H-imidazole-4,5-dicarboxamide] | < 6.30
CN(C)CCNC(=O)c1nc[nH]c1C(=O)Nc1ccc(NC(=O)c2ccc(S(C)(=O)=O)cc2Cl)cc1 [Example 54, N^5-(4-{[2-chloro-4-(methylsulfonyl)benzoyl]amino}phenyl)-N^4-[2-(dimethylamino)ethyl]-1H-imidazole-4,5-dicarboxamide] | 8.22
COc1cc(NC(=O)c2[nH]cnc2C(=O)NCCN2CCCCC2)ccc1NC(=O)c1ccccc1Cl [Example 101, N^5-{4-[(2-chlorobenzoyl)amino]-3-methoxyphenyl}-N^4-[2-(piperidin-1-yl)ethyl]-1H-imidazole-4,5-dicarboxamide] | 8.00
CN1CCC(CNC(=O)c2nc[nH]c2C(=O)Nc2ccc(NC(=O)c3ccc(F)cc3Cl)cc2)C1 (stereo not drawn) [Example 407, N^5-{4-[(2-chloro-4-fluorobenzoyl)amino]phenyl}-N^4-[(1-methylpyrrolidin-3-yl)methyl]-1H-imidazole-4,5-dicarboxamide] | 8.10
O=C(Nc1ccc(NC(=O)c2nc[nH]c2C(=O)N2CCC2)cc1)c1ccc(F)cc1Cl [Example 142, 5-(azetidin-1-ylcarbonyl)-N-{4-[(2-chloro-4-fluorobenzoyl)amino]phenyl}-1H-imidazole-4-carboxamide] | 7.22
O=C(Nc1ccc(NC(=O)c2nc[nH]c2C(=O)NCCN2CC[C@@H](F)C2)cc1)c1ccc(F)cc1Cl [Example 231, N^4-{4-[(2-chloro-4-fluorobenzoyl)amino]phenyl}-N^5-{2-[(3R)-3-fluoropyrrolidin-1-yl]ethyl}-1H-imidazole-4,5-dicarboxamide] | 7.70
CC1CCN(CCCNC(=O)c2nc[nH]c2C(=O)Nc2ccc(NC(=O)c3ccc(F)cc3Cl)cc2)CC1 [Example 400, N^5-{4-[(2-chloro-4-fluorobenzoyl)amino]phenyl}-N^4-[3-(4-methylpiperidin-1-yl)propyl]-1H-imidazole-4,5-dicarboxamide] | 7.70
CNC(=O)c1[nH]c(C)nc1C(=O)Nc1ccc(NC(=O)c2ccc(F)cc2Cl)cc1 [Example 65, N^4-{4-[(2-chloro-4-fluorobenzoyl)amino]phenyl}-N^5,2-dimethyl-1H-imidazole-4,5-dicarboxamide] | 6.44
O=C(Nc1ccc(NC(=O)c2[nH]cnc2C(=O)NCCN2CCCCC2)cc1)c1ccc(F)cc1 [Example 33, N^4-{4-[(4-fluorobenzoyl)amino]phenyl}-N^5-[2-(piperidin-1-yl)ethyl]-1H-imidazole-4,5-dicarboxamide] | < 6.30
CC1CCCN(CCNC(=O)c2[nH]cnc2C(=O)Nc2ccc(NC(=O)c3ccccc3Cl)cc2)C1 (stereo not drawn) [Example 210, N^4-{4-[(2-chlorobenzoyl)amino]phenyl}-N^5-[2-(3-methylpiperidin-1-yl)ethyl]-1H-imidazole-4,5-dicarboxamide] | 8.52
CC(CN1CCOCC1)NC(=O)c1[nH]cnc1C(=O)Nc1ccc(NC(=O)c2ccc(F)cc2)cc1 (single isomer, unassigned; enantiomer 1) [Example 295, N^4-{4-[(4-fluorobenzoyl)amino]phenyl}-N^5-[1-(morpholin-4-yl)propan-2-yl]-1H-imidazole-4,5-dicarboxamide (enantiomer 1)] | 6.72
O=C(Nc1ccc(NC(=O)c2nc[nH]c2C(=O)NCCN2CCC(F)CC2)cc1)c1ccc(F)cc1Cl [Example 230, N^4-{4-[(2-chloro-4-fluorobenzoyl)amino]phenyl}-N^5-[2-(4-fluoropiperidin-1-yl)ethyl]-1H-imidazole-4,5-dicarboxamide] | 7.70
CC(CN1CCOCC1)NC(=O)c1[nH]cnc1C(=O)Nc1ccc(NC(=O)c2ccc(F)cc2Cl)cc1 (single isomer, unassigned; enantiomer 1) [Example 269, N^4-{4-[(2-chloro-4-fluorobenzoyl)amino]phenyl}-N^5-[1-(morpholin-4-yl)propan-2-yl]-1H-imidazole-4,5-dicarboxamide (enantiomer 1)] | 6.89
CC(CN1CCOCC1)NC(=O)c1[nH]cnc1C(=O)Nc1ccc(NC(=O)c2ccc(F)cc2Cl)cc1 (stereo not drawn) [Example 268, N^4-{4-[(2-chloro-4-fluorobenzoyl)amino]phenyl}-N^5-[1-(morpholin-4-yl)propan-2-yl]-1H-imidazole-4,5-dicarboxamide] | 8.52
CC(C)NCCNC(=O)c1[nH]cnc1C(=O)Nc1ccc(NC(=O)c2ccc(F)cc2Cl)cc1 [Example 288, N^4-{4-[(2-chloro-4-fluorobenzoyl)amino]phenyl}-N^5-[2-(isopropylamino)ethyl]-1H-imidazole-4,5-dicarboxamide] | 8.52
O=C(Nc1ccc(NC(=O)c2[nH]cnc2C(=O)N2CC(F)C2)cc1)c1cc(F)c(F)cc1Cl [Example 47, N-{4-[(2-chloro-4,5-difluorobenzoyl)amino]phenyl}-4-[(3-fluoroazetidin-1-yl)carbonyl]-1H-imidazole-5-carboxamide] | < 6.30
CNC(=O)c1nc[nH]c1C(=O)Nc1ccc(NC(=O)c2ccccc2Cl)c(OC)c1 [Example 99, N^5-{4-[(2-chlorobenzoyl)amino]-3-methoxyphenyl}-N^4-methyl-1H-imidazole-4,5-dicarboxamide] | 7.05
